From PMC7144380 (Molecules, 2020) come the findings set out here.

The target in one assay is T1, MOR, mouse vas deferens (Mus musculus, UniProt P42866).
T1 construct: gene Oprm1; native receptor in isolated mouse vas deferens
The conditions noted are these: read-out: EC50 ± S.E.M. (nM) / MVD.

Assay [1] concerns the target T2, µ-opioid receptor (MOR), rat (Rattus norvegicus, UniProt P33535).
T2 construct: gene Oprm1; native receptor in rat brain membrane homogenate or rat vas deferens
Description: […]GTPγS binding, rat brain membranes. Format: biochemical. The settings on record: read-out: EC50 ± S.E.M.; agonist; pH 7.4, 30 °C, 60 min, 30 µM GDP; mixed opioid receptors in tissue, assigned to MOR by the authors. In general terms: GTPγS is a poorly hydrolysed GTP analogue; its binding reports G protein activation.

The target of assay [2] is T3, δ-opioid receptor (DOR), rat (Rattus norvegicus, UniProt P33533).
T3 construct: gene Oprd1; native receptor in rat brain membrane homogenate
Description: [3H]Ile5,6-deltorphin II competition, rat brain membranes. The conditions noted are these: read-out: Ki ± S.E.M. (nM) / [^3H]IleDelt II (δ) ^1; 50 mM Tris-HCl pH 7.4, 35 °C, 45 min; Cheng-Prusoff. Type of assay: binding.

The target in assay [3] is T4, κ-opioid receptor (KOR), guinea pig (Cavia porcellus, UniProt P41144).
T4 construct: gene OPRK1; native receptor in guinea pig brain membrane homogenate
Description: [3H]U-69593 competition, guinea pig brain membranes. The settings on record: 50 mM Tris-HCl pH 7.4, 30 °C, 30 min; unreliable (partial displacement). Format: binding. The source says: [3H]U-69593 competition, guinea pig brain membranes on κ-opioid receptor (KOR), guinea pig

In assay [4] the target is T2, µ-opioid receptor (MOR), rat. Format: binding. The conditions noted are these: read-out: Ki ± S.E.M. (nM) / [^3H]DAMGO (μ) ^1.
In assay [5] the target is T3, δ-opioid receptor (DOR), rat. Description: [3H]Ile5,6-deltorphin II competition, rat brain membranes. Format: binding. The conditions noted are these: 50 mM Tris-HCl pH 7.4, 35 °C, 45 min; unreliable (incomplete displacement).
Assay [6] shares this target. The assay is described as follows: […]GTPγS binding, rat brain membranes. Type of assay: biochemical. The conditions noted are these: agonist; pH 7.4, 30 °C, 60 min, 30 µM GDP.

Where two headings read alike, the source gives them in different places. Bounds are passed on as bounds.

As to `COc1ccc2c3c1O[C@H]1[C@@H](OS(=O)(=O)O)C=C[C@@]4(OC)[C@@H](C2)N(C)CC[C@]314` [14-methoxycodeine-6-O-sulfate], the EC50 at MOR, mouse vas deferens is 239 ± 6.15 nM; in assay [1] it was 301 ± 197 nM. Moreover, the Ki in assay [2] turned out to be 346 ± 133 nM; in assay [4], 3.37 ± 0.48 nM. Moreover, in assay [3], the “Ki ± S.E.M. (nM) / [^3H]U-69593 (κ) ^2” value worked out at 245.57 ± 215.01 nM.

For `COc1ccc2c3c1O[C@H]1[C@@H](OS(=O)(=O)O)C=C[C@H]4[C@@H](C2)N(C)CC[C@@]341` [codeine-6-O-sulfate], the EC50 on MOR, mouse vas deferens (agonist, Mg2+-free Krebs, 31 °C, MOR assigned by naloxone Ke) is more than 1000 nM. In addition, the Ki in assay [4] (50 mM Tris-HCl pH 7.4, 35 °C, 45 min, Cheng-Prusoff) turned out to be 96.9 ± 20.3 nM. The “Ki ± S.E.M. (nM) / [^3H]IleDelt II (δ) ^1” value in assay [5] is 968.28 ± 471.38 nM.

Regarding `CC(C)[C@H](NC(=O)[C@H](CCC(=O)O)NC(=O)[C@H](Cc1ccccc1)NC(=O)[C@@H](C)NC(=O)[C@@H](N)Cc1ccc(O)cc1)C(=O)N[C@H](C(=O)NCC(N)=O)C(C)C` [deltorphin II], the EC50 in assay [6] came to 44.4 ± 23.5 nM.
